Assay results taken from patent US11999715B2, “ASK1 inhibiting agents” (BIOGEN MA INC., priority 2018, dated 2024).

Assays:
ASK1/MAP3K5 = biological target: T1, ASK1/MAP3K5 (Homo sapiens, UniProt Q99683); assay: ASK1/MAP3K5 kinase assay by Reaction Biology Corp. (headed ASK1 TR-FRET Assay); format: biochemical; conditions: 20 μM myelin basic protein, 10 μM ATP, class symbols
T1 sequence (Q99683 1-1374): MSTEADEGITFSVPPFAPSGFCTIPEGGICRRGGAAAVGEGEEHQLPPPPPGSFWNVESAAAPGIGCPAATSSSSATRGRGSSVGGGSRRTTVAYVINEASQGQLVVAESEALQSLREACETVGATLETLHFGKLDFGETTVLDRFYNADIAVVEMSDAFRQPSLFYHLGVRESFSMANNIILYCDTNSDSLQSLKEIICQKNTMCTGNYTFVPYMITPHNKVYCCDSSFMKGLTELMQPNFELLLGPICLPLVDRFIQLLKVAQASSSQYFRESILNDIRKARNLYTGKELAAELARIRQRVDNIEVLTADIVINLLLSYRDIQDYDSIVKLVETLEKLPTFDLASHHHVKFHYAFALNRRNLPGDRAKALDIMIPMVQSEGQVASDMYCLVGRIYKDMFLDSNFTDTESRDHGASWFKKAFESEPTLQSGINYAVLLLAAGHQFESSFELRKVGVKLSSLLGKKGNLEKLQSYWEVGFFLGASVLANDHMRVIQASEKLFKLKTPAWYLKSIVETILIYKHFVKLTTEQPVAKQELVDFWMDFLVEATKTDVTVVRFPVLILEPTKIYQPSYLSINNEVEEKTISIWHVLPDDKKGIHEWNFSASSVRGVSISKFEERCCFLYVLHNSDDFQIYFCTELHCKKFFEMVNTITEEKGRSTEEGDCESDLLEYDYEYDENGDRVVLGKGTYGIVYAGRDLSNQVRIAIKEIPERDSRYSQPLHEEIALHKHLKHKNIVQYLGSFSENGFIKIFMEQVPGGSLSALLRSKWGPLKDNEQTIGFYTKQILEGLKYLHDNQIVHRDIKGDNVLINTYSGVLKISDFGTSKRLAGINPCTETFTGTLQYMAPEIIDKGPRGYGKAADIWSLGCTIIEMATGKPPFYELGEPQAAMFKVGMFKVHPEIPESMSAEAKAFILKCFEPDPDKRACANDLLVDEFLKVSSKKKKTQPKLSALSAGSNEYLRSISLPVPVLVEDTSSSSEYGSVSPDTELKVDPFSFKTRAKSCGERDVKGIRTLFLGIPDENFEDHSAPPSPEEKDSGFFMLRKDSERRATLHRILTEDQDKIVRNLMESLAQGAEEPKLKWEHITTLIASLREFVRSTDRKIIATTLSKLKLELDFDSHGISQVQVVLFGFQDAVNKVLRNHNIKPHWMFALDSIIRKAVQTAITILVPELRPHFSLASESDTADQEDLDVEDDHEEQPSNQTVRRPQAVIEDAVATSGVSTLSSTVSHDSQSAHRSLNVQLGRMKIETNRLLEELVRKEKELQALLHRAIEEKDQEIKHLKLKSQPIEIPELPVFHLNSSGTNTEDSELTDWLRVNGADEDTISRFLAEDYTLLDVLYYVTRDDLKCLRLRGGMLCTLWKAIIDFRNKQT
Method in brief: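 Radiometric filter-binding assay with ASK1/MAP3K5, 20 μM MBP substrate and 10 μM ATP plus ^33P-ATP in HEPES pH 7.5 buffer with 1% DMSO. Compounds were preincubated with kinase 20 min, and the reaction then ran 2 hours at room temperature.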

[1] = biological target: T2, ASK1 T838 auto phosphorylation (Homo sapiens, UniProt Q99683); assay: ASK1 (AUTO PHOS T838) assay, MSD format, in HEK-293T cells transfected with ASK1-V5; format: cell-based; conditions: ASK1 T838 auto phosphorylation in HEK-293T cells, 1 hr compound incubation; class symbols
T2 sequence (Q99683 1-1374): T1 sequence (Q99683 1-1374)
Method in brief: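 HEK-293T cells transiently transfected with full-length ASK1-V5 plasmid were replated, then treated 1 h at 37 °C with a 10-point, 3-fold series from 20 μM. Lysates were probed by MSD with anti-pASK1 T838 and a sulfo-tag secondary, read by chemiluminescence. IC50 came from a 4-parameter fit of normalized % activity.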

SMILES | IC50 (ASK1/MAP3K5) [µM] | IC50 [1] [µM]
COCc1nn(C)cc1C(=O)Nc1cccc(-c2nncn2C(C)C)n1 [Example 4, N-(6-(4-Isopropyl-4H-1,2,4-triazol-3-yl)pyridin-2-yl)-3-(methoxymethyl)-1-methyl-1H-pyrazole-4-carboxamide] | 0.1 to 1 | 1 to 10
C[C@H](n1cnnc1-c1cccc(NC(=O)c2cn(C)nc2C(F)F)n1)C(F)(F)F [Example 22, (S)-3-(Difluoromethyl)-1-methyl-N-(6-(4-(1,1,1-trifluoropropan-2-yl)-4H-1,2,4-triazol-3-yl)pyridin-2-yl)-1H-pyrazole-4-carboxamide] | 1 to 10 | 1 to 10
COc1nn(-c2cnccn2)cc1C(=O)Nc1cccc(-c2nncn2[C@H](C)C(F)(F)F)n1 [Example 88, (R)-3-Methoxy-1-(pyrazin-2-yl)-N-(6-(4-(1,1,1-trifluoropropan-2-yl)-4H-1,2,4-triazol-3-yl)pyridin-2-yl)-1H-pyrazole-4-carboxamide] | 0.1 to 1 | 1 to 10
COc1nn(C)cc1C(=O)Nc1cccc(-c2cncn2C2CC2)c1 [Example 101, N-(3-(1-cyclopropyl-1H-imidazol-5-yl)phenyl)-3-methoxy-1-methyl-1H-pyrazole-4-carboxamide] | 1 to 10 | > 10
COc1nn(C)cc1C(=O)Nc1cccc(-c2nncn2[C@H]2CCN(C(=O)OC(C)(C)C)C2)n1 (single isomer, unassigned) [Example 40] | 0.1 to 1 | 1 to 10
CC(C)n1cncc1-c1cccc(NC(=O)c2cn(-c3cccnc3)nc2C(F)F)n1 [Example 94, 3-(Difluoromethyl)-N-(6-(1-isopropyl-1H-imidazol-5-yl)pyridin-2-yl)-1-(pyridin-3-yl)-1H-pyrazole-4-carboxamide] | ≤ 0.1 | ≤ 1
COc1nn(CC(F)(F)F)cc1C(=O)Nc1cccc(-c2nncn2C2CC2)n1 [Example 105, N-(6-(4-Cyclopropyl-4H-1,2,4-triazol-3-yl)pyridin-2-yl)-3-methoxy-1-(2,2,2-trifluoroethyl)-1H-pyrazole-4-carboxamide] | ≤ 0.1 | ≤ 1
COc1nn(Cc2ccccn2)cc1C(=O)Nc1cccc(-c2nncn2C(C)C)n1 [Example 44, N-(6-(4-Isopropyl-4H-1,2,4-triazol-3-yl)pyridin-2-yl)-3-methoxy-1-(pyridin-2-ylmethyl)-1H-pyrazole-4-carboxamide] | ≤ 0.1 | ≤ 1
C=CCn1cc(C(=O)Nc2cccc(-c3nncn3[C@@H](C)C(F)(F)F)n2)c(OC)n1 [Example 57, (S)-1-Allyl-3-methoxy-N-(6-(4-(1,1,1-trifluoropropan-2-yl)-4H-1,2,4-triazol-3-yl)pyridin-2-yl)-1H-pyrazole-4-carboxamide] | ≤ 0.1 | ≤ 1
COc1nn(C)cc1C(=O)Nc1cccc(-c2nncn2[C@@H](C)C(F)F)n1 (single isomer, unassigned) [Example 27] | ≤ 0.1 | ≤ 1

Other lines, results leading:

IC50 (ASK1/MAP3K5) [µM] | IC50 [1] [µM] | SMILES
≤ 0.1 | ≤ 1 | COc1nn(C)cc1C(=O)Nc1cccc(-c2nncn2C2CCC2)n1 [Example 17, N-(6-(4-Cyclobutyl-4H-1,2,4-triazol-3-yl)pyridin-2-yl)-3-methoxy-1-methyl-1H-pyrazole-4-carboxamide]
≤ 0.1 | ≤ 1 | CC(C)n1cnnc1-c1cccc(NC(=O)c2cn(-c3cccnc3)nc2C(F)F)n1 [Example 82, 3-(Difluoromethyl)-N-(6-(4-isopropyl-4H-1,2,4-triazol-3-yl)pyridin-2-yl)-1-(pyridin-3-yl)-1H-pyrazole-4-carboxamide]
≤ 0.1 | ≤ 1 | COc1nn(CC(C)C)cc1C(=O)Nc1cccc(-c2nncn2C(C)C(F)(F)F)n1 (stereo not drawn) [Example 43, 1-Isobutyl-3-methoxy-N-(6-(4-(1,1,1-trifluoropropan-2-yl)-4H-1,2,4-triazol-3-yl)pyridin-2-yl)-1H-pyrazole-4-carboxamide]
≤ 0.1 | ≤ 1 | COc1nn(C)cc1C(=O)Nc1cccc(-c2nncn2C2CCCC2)n1 [Example 20, N-(6-(4-Cyclopentyl-4H-1,2,4-triazol-3-yl)pyridin-2-yl)-3-methoxy-1-methyl-1H-pyrazole-4-carboxamide]
≤ 0.1 | ≤ 1 | COCCn1cc(C(=O)Nc2cccc(-c3nncn3[C@@H](C)C(F)(F)F)n2)c(C(F)F)n1 [Example 51, (S)-3-(Difluoromethyl)-1-(2-methoxyethyl)-N-(6-(4-(1,1,1-trifluoropropan-2-yl)-4H-1,2,4-triazol-3-yl)pyridin-2-yl)-1H-pyrazole-4-carboxamide]
≤ 0.1 | ≤ 1 | COc1nn(C)cc1C(=O)Nc1cccc(-c2nncn2[C@@H](C)C(F)(F)F)n1 [Example 12, (S)-3-Methoxy-1-methyl-N-(6-(4-(1,1,1-trifluoropropan-2-yl)-4H-1,2,4-triazol-3-yl)pyridin-2-yl)-1H-pyrazole-4-carboxamide]
≤ 0.1 | ≤ 1 | CCCn1cc(C(=O)Nc2cccc(-c3nncn3C(C)C(F)(F)F)n2)c(OC)n1 (stereo not drawn) [Example 59, 3-Methoxy-1-propyl-N-(6-(4-(1,1,1-trifluoropropan-2-yl)-4H-1,2,4-triazol-3-yl)pyridin-2-yl)-1H-pyrazole-4-carboxamide]
≤ 0.1 | ≤ 1 | Cn1cc(C(=O)Nc2cccc(-c3nncn3C3(C(F)(F)F)CC3)n2)c(C(F)F)n1 [Example 24, 3-(Difluoromethyl)-1-methyl-N-(6-(4-(1-(trifluoromethyl)cyclopropyl)-4H-1,2,4-triazol-3-yl)pyridin-2-yl)-1H-pyrazole-4-carboxamide]
≤ 0.1 | ≤ 1 | CC(C)n1cnnc1-c1cccc(NC(=O)c2cn(-c3cncc(O)c3)nc2C(F)F)n1 [Example 80, 3-(Difluoromethyl)-1-(5-hydroxypyridin-3-yl)-N-(6-(4-isopropyl-4H-1,2,4-triazol-3-yl)pyridin-2-yl)-1H-pyrazole-4-carboxamide]
≤ 0.1 | ≤ 1 | CC(C)n1cnnc1-c1cccc(NC(=O)c2cn(-c3cncc(N(C)C)c3)nc2C(F)F)n1 [Example 79, 3-(Difluoromethyl)-1-(5-(dimethylamino)pyridin-3-yl)-N-(6-(4-isopropyl-4H-1,2,4-triazol-3-yl)pyridin-2-yl)-1H-pyrazole-4-carboxamide]
≤ 0.1 | ≤ 1 | COC[C@H](C)n1cnnc1-c1cccc(NC(=O)c2cn(C)nc2OC)n1 (single isomer, unassigned) [Example 33]
≤ 0.1 | ≤ 1 | CC(C)Oc1cncc(-n2cc(C(=O)Nc3cccc(-c4nncn4C(C)C)n3)c(C(F)F)n2)c1 [Example 81, 3-(Difluoromethyl)-1-(5-isopropoxypyridin-3-yl)-N-(6-(4-isopropyl-4H-1,2,4-triazol-3-yl)pyridin-2-yl)-1H-pyrazole-4-carboxamide]
≤ 0.1 | ≤ 1 | CC(C)Oc1cncc(-n2cc(C(=O)Nc3cccc(-c4cncn4C(C)C)n3)c(C(F)F)n2)c1 [Example 100, 3-(Difluoromethyl)-1-(5-isopropoxypyridin-3-yl)-N-(6-(1-isopropyl-1H-imidazol-5-yl)pyridin-2-yl)-1H-pyrazole-4-carboxamide]
≤ 0.1 | ≤ 1 | COCCn1cc(C(=O)Nc2cccc(-c3nncn3C3CC3)n2)c(OC)n1 [Example 54, N-(6-(4-Cyclopropyl-4H-1,2,4-triazol-3-yl)pyridin-2-yl)-3-methoxy-1-(2-methoxyethyl)-1H-pyrazole-4-carboxamide]
